Data: patent US20220324865A1 (Bayer Aktiengesellschaft, priority 2018, published 2022)

The compounds below were run against T1, human EP3 receptor (Homo sapiens, UniProt P43115) (assay: Cellular in vitro assay for determining EP3 receptor activity (human EP3 cell line, sulprostone-stimulated calcium luminescence)). Settings: CHO cells expressing human EP3 and mitochondrial Clytin; antagonist mode, sulprostone at EC50; read-out: EP3 CHO mtCLY ANTAG IC50.
T1 construct: expressed in transfected cells; host or cells: CHO K1 (Chinese Hamster Ovary), stably co-transfected with Galpha16 and mitochondrial clytin
T1 sequence (P43115 1-390): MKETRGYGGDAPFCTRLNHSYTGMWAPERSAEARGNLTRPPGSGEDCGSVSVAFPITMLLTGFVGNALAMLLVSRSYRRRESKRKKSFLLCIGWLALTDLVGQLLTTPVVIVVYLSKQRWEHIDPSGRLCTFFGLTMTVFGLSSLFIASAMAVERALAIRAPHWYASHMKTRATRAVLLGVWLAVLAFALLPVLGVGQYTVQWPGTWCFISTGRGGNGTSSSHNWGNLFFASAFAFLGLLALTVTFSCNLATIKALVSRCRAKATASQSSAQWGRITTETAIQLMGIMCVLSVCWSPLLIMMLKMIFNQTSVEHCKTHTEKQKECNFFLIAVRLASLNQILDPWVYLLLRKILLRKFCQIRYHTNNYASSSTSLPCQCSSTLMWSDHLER
Assay type: cell-based
Experimental: B-1. Cellular In Vitro Assay for Determining EP3 Receptor Activity
The identification of antagonists of the EP3 receptor from humans and rats as well as the quantification of the activity of the compounds of the invention was carried out using recombinant cell lines. These cell lines originally derive from a hamsters ovary epithelial cell (Chinese Hamster Ovary, CHO K1, ATCC: American Type Culture Collection, Manassas, Va. 20108, USA). The test cell lines constitutively express the human or rat EP3 receptors. The naturally Gαi-coupled human and rat EP3 receptors were stably co-transfected with Gα16 into cells that are also stably transfected with a mitochondrial form of the calcium-sensitive photoproteins Clytin (human EP3) or Photina (rat EP3), which, after reconstitution with the cofactor coelenterazine, emit light when there are increases in free calcium concentrations (Nature 1992, 358, 325-327; Gene 1995, 153 (2), 273-274). The resulting EP3 receptor cells react to stimulation of the recombinantly expressed EP3 receptors by the agonist sulprostone with intracellular release of calcium ions, which can be quantified by the resulting photoprotein luminescence. Antagonists inhibit the receptor signaling, leading to reduced calcium release and luminescence. The bioluminescence of the cell lines is detected using a suitable luminometer (Trends Pharmacol. Sci. 1996, 17, 235-237).
Human and Rat EP3 Cell Lines:
On the day before the assay, the cells are plated out in culture medium (OptiMEM, 1% FCS, 2 mM glutamine, 10 mM HEPES, 5 μg/ml coelenterazine) in 384-well microtiter plates and kept in a cell incubator (96% humidity, 5% v/v CO2, 37° C.). On the day of the assay, test compounds in various concentrations are placed for 10 minutes in the wells of the microtiter plate before the agonist sulprostone at EC50 concentration is added. The resulting light signal is measured immediately in a luminometer. All concentrations are measured in quadruples.

Q: `COc1ccc(C2(NC(=O)c3nn4cc(-c5ccc6c(c5)OCCO6)[nH]c(=O)c4c3C3CC3)CN(C)C2)cc1` [6-464] was tested. Which IC50 did it give?
A: 3.6 nM

Q: For `O=C(N[C@H](CCO)c1ccccc1)c1cc2c(=O)[nH]c(-c3ccc4ccccc4c3)cn2n1` [6-541], which IC50 is on record?
A: 0.97 nM

Q: Which IC50 does the source give for `Cc1c(C(=O)NC2(c3ccc(Cl)cc3)CCC2)nn2c(C)c(-c3ccc4ccccc4c3)[nH]c(=O)c12` [Example 3-32, N-[1-(4-Chlorophenyl)cyclobutyl]-3,7-dimethyl-6-(naphthalen-2-yl)-4-oxo-4,5-dihydropyrazolo[1,5-a]pyrazine-2-carboxamide] here?
A: 5.8 nM

Q: For `Cc1c(C(=O)N[C@@H](C)c2ccccc2)nn2c(C)c(-c3ccc4ccccc4c3)[nH]c(=O)c12` [Example 3-22, 3,7-Dimethyl-6-(naphthalen-2-yl)-4-oxo-N-[(7S)-1-phenylethyl]-4,5-dihydropyrazolo[1,5-a]pyrazine-2-carboxamide], which IC50 is on record?
A: 2.35 nM

Q: With `Cc1cc(-c2cn3nc(C(=O)N[C@@H](C)C4CC4)c(C(C)C)c3c(=O)[nH]2)ccc1Cl` [6-608] as the compound, how does the IC50 read?
A: 1.9 nM

Q: With `COC[C@H](NC(=O)c1cc2c(=O)[nH]c(-c3ccc4c(c3)OCCO4)cn2n1)c1ccccc1` [6-46] as the compound, how does the IC50 read?
A: 2.43 nM

Q: How did the IC50 turn out when `C[C@@H](NC(=O)c1cc2c(=O)[nH]c(-c3ccc4c(c3)CCC4)cn2n1)c1ccc(F)cc1` [Example 1-98, 6-(2,3-Dihydro-1H-inden-5-yl)-N-[(1R)-1-(4-fluorophenyl)ethyl]-4-oxo-4,5-dihydropyrazolo[1,5-a]-pyrazine-2-carboxamide] was run?
A: 3.45 nM

Q: How did the IC50 turn out when `Cc1c(C(=O)NC(C)c2cccc(Br)c2)nn2c(C)c(-c3ccc4ccccc4c3)[nH]c(=O)c12` (stereo not drawn) [Example 3-24, N-[1-(3-Bromophenyl)ethyl]-3,7-dimethyl-6-(2-naphthyl)-4-oxo-5H-pyrazolo[1,5-a]pyrazine-2-carboxamide] was run?
A: 4.85 nM

Q: How did the IC50 turn out when `CCc1ccc(C(C)NC(=O)c2nn3cc(-c4cnc5cccc(C)c5c4)[nH]c(=O)c3c2C(C)C)cc1` (stereo not drawn) [Example 4-9, N-[1-(4-Ethylphenyl)ethyl]-3-isopropyl-6-(5-methyl-3-quinolyl)-4-oxo-5H-pyrazolo[1,5-a]pyrazine-2-carboxamide] was run?
A: 3.7 nM

Q: How did the IC50 turn out when `Cc1ccc(-c2cn3nc(C(=O)NC(C)COc4cc(Cl)cc(Cl)c4)cc3c(=O)[nH]2)cc1C` (stereo not drawn) [6-3] was run?
A: 7.95 nM

Q: How did the IC50 turn out when `COC[C@@H](C)NC(=O)c1nn2cc(-c3ccc(C(F)(F)F)c(C)c3)[nH]c(=O)c2c1C1CC1` [6-136] was run?
A: 7.5 nM

Q: With `Cc1cc(-c2cn3nc(C(=O)NC4(c5ccc(F)cc5)CN(CC(F)F)C4)c(C4CC4)c3c(=O)[nH]2)ccc1Cl` [6-340] as the compound, how does the IC50 read?
A: 1.02 nM

Q: Which IC50 does the source give for `Cc1ccc(-c2cn3nc(C(=O)NC(c4ccc(F)cc4)C4(O)CC4)c(C4CC4)c3c(=O)[nH]2)cc1F` (single isomer, unassigned) [6-382] here?
A: 0.78 nM

Q: `Cc1ccc(-c2cn3nc(C(=O)N[C@H](CN4CC[C@@H](F)C4)c4ccccc4)cc3c(=O)[nH]2)cc1F` [6-637] was tested. Which IC50 did it give?
A: 3.6 nM

Q: With `CC(C)(O)[C@@H](NC(=O)c1nn2cc(-c3ccc4ccccc4c3)[nH]c(=O)c2c1C#N)c1ccc(F)cc1` [6-110] as the compound, how does the IC50 read?
A: 4 nM

Q: For `O=C(N[C@@H](c1ccc(F)cc1)C(F)(F)CO)c1nn2cc(-c3cc(F)c(Cl)c(F)c3)[nH]c(=O)c2c1C1CC1` [6-474], which IC50 is on record?
A: 1.63 nM

Q: Which IC50 does the source give for `Cc1cc(-c2cn3nc(C(=O)NC4(c5ccc(F)cc5)CN(CC(F)F)C4)c(C(F)(F)F)c3c(=O)[nH]2)ccc1Cl` [6-239] here?
A: 3.1 nM

Q: How did the IC50 turn out when `CC(CC(F)(F)F)NC(=O)c1cc2c(=O)[nH]c(-c3ccc4ccccc4c3)cn2n1` (stereo not drawn) [6-52] was run?
A: 3.55 nM

Q: Which IC50 does the source give for `CC(C)CN1CC(NC(=O)c2nn3cc(-c4ccc5ccccc5c4)[nH]c(=O)c3c2C(F)(F)F)(c2ccc(F)cc2)C1` [Example 1-128, N-[3-(4-Fluorophenyl)-1-(2-methylpropyl)azetidin-3-yl]-6-(naphthalen-2-yl)-4-oxo-3-(trifluoromethyl)-4,5-dihydropyrazolo[1,5-a]pyrazine-2-carboxamide] here?
A: 2.9 nM

Q: Which IC50 does the source give for `O=C(N[C@H](CCO)c1ccc(F)cc1)c1cc2c(=O)[nH]c(-c3ccc4c(c3)COCC4)cn2n1` [Example 1-24, 6-(3,4-Dihydro-1H-isochromen-7-yl)-N-[(1R)-1-(4-fluorophenyl)-3-hydroxypropyl]-4-oxo-4,5-dihydropyrazolo[1,5-a]pyrazine-2-carboxamide] here?
A: 7.3 nM

Q: For `O=C(N[C@H](CCO)c1ccc(F)cc1)c1nn2cc(-c3ccc4ccccc4c3)[nH]c(=O)c2c1C(F)(F)F` [Example 1-17, N-[(1R)-1-(4-Fluorophenyl)-3-hydroxpropyl]-6-(naphthalen-2-yl)-4-oxo-3-(trifluoromethyl)-4,5-dihydropyrazolo[1,5-a]pyrazine-2-carboxamide], which IC50 is on record?
A: 0.575 nM

Q: For `Cc1ccc(-c2[nH]c(=O)c3c(C(F)(F)F)c(C(=O)NCCn4ccc(C5CC5)n4)nn3c2C)cc1C` [Example 1-130, N-[2-(3-Cyclopropyl-1H-pyrazol-1-yl)ethyl]-6-(3,4-dimethylphenyl)-7-methyl-4-oxo-3-(trifluoromethyl)-4,5-dihydropyrazolo[1,5-a]pyrazine-2-carboxamide], which IC50 is on record?
A: 2.55 nM

Q: `O=C(N[C@H](CO)c1ccccc1)c1nn2cc(-c3ccc4ccccc4c3)[nH]c(=O)c2c1C(F)(F)F` [Example 1-77, N-[(1S)-2-Hydroxy-1-phenylethyl]-6-(naphthalen-2-yl)-4-oxo-3-(trifluoromethyl)-4,5-dihydropyrazolo[1,5-a]pyrazine-2-carboxamide] was tested. Which IC50 did it give?
A: 1.18 nM

Q: `COCc1c(C(=O)NC2(c3ccc(F)cc3)CN(C)C2)nn2cc(-c3ccc4ccccc4c3)[nH]c(=O)c12` [Example 1-21, N-[3-(4-Fluorophenyl)-1-methylazetidin-3-yl]-3-(methoxymethyl)-6-(naphthalen-2-yl)-4-oxo-4,5-dihydropyrazolo[1,5-a]pyrazine-2-carboxamide] was tested. Which IC50 did it give?
A: 1.25 nM

Q: With `Cc1cc(-c2cn3nc(C(=O)N[C@@H](c4ccc(F)cc4)C(C)(C)O)c(C(F)(F)F)c3c(=O)[nH]2)ccc1Cl` [Example 1-166, 6-(4-Chloro-3-methylphenyl)-N-[(1S)-1-(4-fluorophenyl)-2-hydroxy-2-methylpropyl]-4-oxo-3-(trifluoromethyl)-4,5-dihydropyrazolo[1,5-a]pyrazine-2-carboxamide] as the compound, how does the IC50 read?
A: 3.15 nM

Q: With `Cc1ccc(-c2cn3nc(C(=O)NC4(c5ccc(F)cc5)CN(C)C4)c(C4CCC4)c3c(=O)[nH]2)cc1F` [6-574] as the compound, how does the IC50 read?
A: 1.5 nM

Q: `O=C(N[C@@H](c1ccc(F)cc1)C(F)(F)CO)c1nn2cc(-c3cc(F)c(Cl)cc3F)[nH]c(=O)c2c1C1CC1` [6-585] was tested. Which IC50 did it give?
A: 3 nM

Q: Which IC50 does the source give for `Cc1ccc(-c2cn3nc(C(=O)NC4CCN(CC(F)F)C4)c(C4CC4)c3c(=O)[nH]2)cc1C` (stereo not drawn) [6-453] here?
A: 1.13 nM

Q: `Cc1ccc(-c2cn3nc(C(=O)N[C@@H](c4ccc(F)cc4)C(C)(C)O)c(C(F)(F)F)c3c(=O)[nH]2)cc1C` [Example 1-67, 6-(3,4-Dimethylphenyl)-N-[(1S)-1-(4-fluorophenyl)-2-hydroxy-2-methylpropyl]-4-oxo-3-(trifluoro-methyl)-4,5-dihydropyrazolo[1,5-a]pyrazine-2-carboxamide] was tested. Which IC50 did it give?
A: 0.905 nM

Q: Which IC50 does the source give for `Cc1ccc(-c2cn3nc(C(=O)NC4(c5ccc(F)cc5)CN(C)C4)c(C)c3c(=O)[nH]2)cc1Cl` [Example 1-150, 6-(3-Chloro-4-methylphenyl)-N-[3-(4-fluorophenyl)-1-methylazetidin-3-yl]-3-methyl-4-oxo-4,5-dihydropyrazolo[1,5-a]pyrazine-2-carboxamide] here?
A: 7.23 nM
